# Measurements: patent publication US20130315843A1, “COMPOSITION FOR REDUCTION OF TRPA1 AND TRPV1 SENSATIONS” (priority 2012, published 2013)
# “And” between values parts separate entries of the source, which are not always exact repeats. Equal entries are not always repeated.
# Key:
# human TRPV1 [1] = molecular target: T1, human TRPV1 (Homo sapiens, UniProt Q8NER1); test: FLIPR Ca2+ assay, reduction of hydrogen peroxide activation of TRPV1; format: cell-based; parameters: expressed in transfected cells; conditions: for Ca++ counts: with compound
# T1 sequence (Q8NER1 whole entry): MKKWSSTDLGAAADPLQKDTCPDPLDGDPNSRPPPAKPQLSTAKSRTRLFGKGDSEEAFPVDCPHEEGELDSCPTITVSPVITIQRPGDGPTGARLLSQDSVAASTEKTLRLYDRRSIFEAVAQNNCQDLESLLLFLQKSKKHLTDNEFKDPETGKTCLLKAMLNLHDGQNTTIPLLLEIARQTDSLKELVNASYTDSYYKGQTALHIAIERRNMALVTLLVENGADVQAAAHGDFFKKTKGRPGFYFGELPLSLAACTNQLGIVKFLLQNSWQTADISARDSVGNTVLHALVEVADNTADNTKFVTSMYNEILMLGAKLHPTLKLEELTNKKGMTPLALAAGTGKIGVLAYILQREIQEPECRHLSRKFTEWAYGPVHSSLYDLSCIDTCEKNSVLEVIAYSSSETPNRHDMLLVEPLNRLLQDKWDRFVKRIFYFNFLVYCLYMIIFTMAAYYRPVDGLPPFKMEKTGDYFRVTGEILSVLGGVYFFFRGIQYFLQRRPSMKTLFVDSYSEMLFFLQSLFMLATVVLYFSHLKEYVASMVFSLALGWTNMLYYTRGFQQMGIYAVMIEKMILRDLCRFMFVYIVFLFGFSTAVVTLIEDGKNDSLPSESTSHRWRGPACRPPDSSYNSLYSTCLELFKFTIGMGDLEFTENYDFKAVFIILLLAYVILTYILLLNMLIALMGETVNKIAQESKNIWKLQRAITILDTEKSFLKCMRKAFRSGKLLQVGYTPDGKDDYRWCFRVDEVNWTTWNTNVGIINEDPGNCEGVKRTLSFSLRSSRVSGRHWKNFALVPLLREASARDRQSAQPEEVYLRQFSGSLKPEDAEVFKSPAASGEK
# human TRPV1 [2] = molecular target: T1, human TRPV1; test: FLIPR Ca2+ assay, reduction of capsaicin activation of TRPV1; format: cell-based; parameters: expressed in transfected cells; conditions: for Ca++ counts: with compound
# Description: (§1) Cells were detached with addition of 10 ml of PBS (phosphate buffered saline) by hand shaking gently. Cells were transferred to a 50 ml tube and centrifuged at 850 rpm for 3 minutes to remove PBS.
# The pelleted cells were re-suspended in 10 ml assay buffer and 90 μl aliquots (˜50,000 cells) per well delivered to a 96-well assay plate containing 10 μl of test compounds ([…]) or buffer control and incubated at room temperature for 30 minutes.
# human TRPA1 = human TRPA1 (Homo sapiens, UniProt O75762); test: FLIPR intracellular Ca2+ assay, direct (agonist) effect on TRPA1; format: cell-based; parameters: expressed in transfected cells
# human TRPA1, sequence (O75762 whole entry): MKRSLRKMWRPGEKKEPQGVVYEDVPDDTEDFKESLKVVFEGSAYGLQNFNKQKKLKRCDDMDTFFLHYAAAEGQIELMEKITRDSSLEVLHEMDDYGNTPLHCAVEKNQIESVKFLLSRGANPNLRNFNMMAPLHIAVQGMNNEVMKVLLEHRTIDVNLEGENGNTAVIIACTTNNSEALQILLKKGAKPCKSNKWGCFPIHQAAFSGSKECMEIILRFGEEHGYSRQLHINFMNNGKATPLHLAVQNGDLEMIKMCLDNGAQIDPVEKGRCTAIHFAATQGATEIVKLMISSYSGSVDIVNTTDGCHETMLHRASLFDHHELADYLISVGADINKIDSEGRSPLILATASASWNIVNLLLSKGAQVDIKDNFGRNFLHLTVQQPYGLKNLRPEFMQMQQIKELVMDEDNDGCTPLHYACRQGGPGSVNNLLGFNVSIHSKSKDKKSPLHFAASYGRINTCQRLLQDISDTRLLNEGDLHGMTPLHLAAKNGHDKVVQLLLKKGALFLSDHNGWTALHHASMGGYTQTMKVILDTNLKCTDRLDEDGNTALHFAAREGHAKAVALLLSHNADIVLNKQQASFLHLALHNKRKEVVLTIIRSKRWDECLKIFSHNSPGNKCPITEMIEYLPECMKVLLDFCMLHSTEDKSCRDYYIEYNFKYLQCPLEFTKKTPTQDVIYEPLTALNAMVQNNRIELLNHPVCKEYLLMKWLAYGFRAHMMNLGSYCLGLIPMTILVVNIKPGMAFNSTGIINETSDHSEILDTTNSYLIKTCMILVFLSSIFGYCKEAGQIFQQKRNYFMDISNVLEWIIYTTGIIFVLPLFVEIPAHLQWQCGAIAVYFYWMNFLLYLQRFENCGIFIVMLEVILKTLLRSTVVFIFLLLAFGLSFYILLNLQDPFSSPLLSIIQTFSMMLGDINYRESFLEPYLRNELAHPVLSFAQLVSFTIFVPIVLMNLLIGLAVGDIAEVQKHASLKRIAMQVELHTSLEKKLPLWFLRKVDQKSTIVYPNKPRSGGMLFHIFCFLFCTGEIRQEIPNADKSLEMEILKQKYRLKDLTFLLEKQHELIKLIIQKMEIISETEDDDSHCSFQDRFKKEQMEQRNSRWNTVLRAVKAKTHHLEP
# Description: After centrifugation, a pellet of cells was formed in the bottom of the tube separating them from the supernatant solution.
# (§2) The pelleted cells were re-suspended in 10 ml assay buffer and 90 μl aliquots (˜50,000 cells) per well delivered to a 96-well assay plate containing 10 μl of test compounds (1 mM in assay buffer, final concentration 100 μM) or buffer control and incubated at room temperature for 30 minutes.
# [3] = Headspace GC reduction of 1-propanethiol by protectant (Michael Acceptor) compounds; conditions: for % Thiol Reduction: 0.1% sodium lauryl sulfate, 1% test compound, headspace; for Percent Thiol Reduction vs. Control: 0.1% SLS
# Description: For EXAMPLES 11 and 12 a 0.1% sodium lauryl sulfate (SLS) aqueous solution was prepared to contain either 1 ppm or 10 ppm of 1-propanethiol. SLS solution was added to the sample and control solutions to assist in solubilization of the more hydrophobic compounds. Control solutions contained surfactant and 1-propanethiol, while sample solutions contained these components plus a protectant compound added at either 0.01% or 0.05%. 100 μL aliquots of control or test solutions were aliquotted into a 22 mL headspace vial, vortexed for 30 seconds, and incubated for 30 minutes at 60 C in an oven. After that period, 1 mL of head space was sampled and injected into an Agilent 7890 gas chromatograph equipped with a sulfur chemiluminescence detector (GC-SCD). Peak areas of the 1-propanethiol control sample (no protectant compound added) were established by triplicate injection of the control sample. The area of the propanethiol peak produced from samples containing selected protectant molecules were then determined and ratioed to the 1-propanethiol control peak area, subtracted from 1, and multiplied by 100 to calculate percent reduction of the thiol peak, thus indicating the effectiveness of each protectant at reducing the level of thiol.
# The samples in TABLE 17 were prepared by combining 1 ppm 1-propanethiol with 0.1% sodium lauryl sulfate with 1% of the test compounds. The volatile sulfurs were measured with headspace GC/MS using a SPEME column to capture the volatile sulfur.
# The samples in TABLE 18 were prepared by combining either 1 or 10 ppm 1-propanethiol with 0.1% sodium lauryl sulfate with either 0.01% or 0.05% of the test compounds.
# human TRPV1 [4] = molecular target: T1, human TRPV1; conditions: control agonist Capsaicin 350 nM
# Description: as §1, §2
# [5] = Trained sensory panel, burning and numbing sensation after hydrogen peroxide mouthwash; format: in vivo, human; parameters: key to Burning Sensation: 0 = no sensation, 60 = highest intensity sensation; conditions: scale 0-60
# Description: (§3) For EXAMPLES 6 and 7 sensory evaluation studies of menthol and hydrogen peroxide activity were conducted using a methodology patterned after the techniques described in M. C. Meilgaard, et al., Sensory Evaluation Techniques, 4th Ed. (2007). In one study, a panel of 8-15 trained sensory experts evaluated the menthol or peroxide sensations experienced after brushing with a dentifrice containing the menthol or hydrogen peroxide and the respective TRPA1 or TRPV1 antagonists. Panelists brushed teeth with 1.5 grams of a dentifrice (containing coolant) or control (no coolant) and then expectorated. After brush expectoration, panelists evaluated the burn intensity, assigning a number between 0 (no burning) to 60 ([…]). After rinse expectoration, panelists evaluated burning intensity according to the same 0 to 60 scale. Evaluations were conducted at 5, 15, 30, 45, 60 minute, etc. time points. At each evaluation, panelists were instructed to breathe in through pursed lips and evaluate overall burning sensation. In this test, a numerical score difference from the control of 7.5 indicates user significant differences or definite reduction in burning at the specified time point. Measures between 4.0 to 7.5 indicate a noticeable trend in the specified parameter, which is not statistically significant, but noticeable.
# For EXAMPLE 7, a panel of 10 trained sensory experts evaluated the sensory profile experienced after rinsing with 30 grams of a test mouthwash (containing hydrogen peroxide and TRPA1 or TRPV1 antagonist) or control (containing hydrogen peroxide and no TRPA1 or TRPV1 antagonist) for 30 seconds and then expectorated. After expectoration, panelists evaluated the sensorial profile (cooling, warming, burning, numbing, and astringency), assigning a number between 0 (no sensation) to 60 (highest intensity sensation). Evaluations were conducted at 2.5, 5, 10, 20, and 30 minute time points, following expectoration at each evaluation, panelists were instructed to breathe in through pursed lips and evaluate overall burning or numbing sensation. The hydrogen peroxide containing mouthwash formulations are shown below in TABLE 11. The mouthwash samples tested comprised a control having the components listed in TABLE 11 by weight % of the composition or the control formulation plus TRPA1 or TRPV1 antagonist, as shown in TABLE 12. The mouthwashes were made using conventional methods and are shown below with amounts in weight % of total composition.
# [6] = Trained sensory panel, burn sensation after brushing with menthol dentifrice; format: in vivo, human; parameters: key: 0 = no burning to 60 = highest intensity; 7.5 difference = significant; conditions: scale 0-60
# Description: as §3
# For EXAMPLE 6 (TABLES 8 and 9), a panel of 14 trained sensory experts evaluated the sensory profile experienced after brushing with the dentifrice sample formulations shown in TABLES 6 and 7 containing high levels of menthol followed by rinsing with water. Panelists brushed teeth with 1.5 grams of a test dentifrice (containing high menthol levels) or control (no menthol) for 36 seconds and then expectorated. The dentifrice sample formulations (control and high L-Menthol) are shown below in TABLE 6 (with peppermint flavor) and TABLE 7 (with spearmint flavor). The dentifrices were made using conventional methods and are shown below with component amounts in weight % of total composition. […]
# For TABLE 10 all the Samples had the same formulation as Sample E from TABLE 6, except for the Control which lacked menthol. After brushing or mouthwash expectoration, panelists evaluated the burning sensation, assigning a number between 0 (no sensation) to 60 (highest intensity sensation). Evaluations were conducted at 5, 10, 20 and 30 minute time points, following expectoration. At each evaluation, panelists were instructed to breathe in through pursed lips and evaluate overall sensation. In this test, a numerical score of 7.5 indicates a significant user noticeable sensation. Differences less than 7.5, but greater than 5.0 indicate the trending of the data on a specific attribute.
# [7] = 1 ppm 1-propanethiol, 0.01% test compound
# [8] = 1 ppm 1-propanethiol, 0.05% test compound
# [9] = 10 ppm 1-propanethiol, 0.01% test compound
# [10] = 10 ppm 1-propanethiol, 0.05% test compound
# [11] = 2 Min 30 SEC After Expectoration, H2O2 mouthwash, antagonist levels as E48
# [12] = 5 Min After Expectoration, H2O2 mouthwash, antagonist levels as E48
# [13] = 10 Min After Expectoration, H2O2 mouthwash, antagonist levels as E48
# [14] = 20 Min After Expectoration, H2O2 mouthwash, antagonist levels as E48
# [15] = 30 Min After Expectoration, H2O2 mouthwash, antagonist levels as E48
# [16] = After Expectoration, H2O2 mouthwash, antagonist levels as E48
# [17] = antagonist 400 μM against 500 μM hydrogen peroxide
compound,measurement,setting,value
"CC(=O)OC1CC2CCC1(C)C2(C)C (single isomer, unassigned; (-)) [(−)-Bornyl Acetate]","reduction of hydrogen peroxide activation of TRPV1, in words",human TRPV1 [1],reduce hydrogen peroxide activation of TRPV1
same,inhibition at 100 µM,human TRPV1 [1]; antagonist 100 μM against 500 μM hydrogen peroxide,53%
same,Ca++ counts,"human TRPV1 [1]; Dose 1000, 500 uM H2O2",877
same,Ca++ counts,"human TRPV1 [2]; Dose 1000, 350 nM Capsaicin",13976
same,"effect on TRPA1 receptor, in words (agonist / enhancer)",human TRPA1,TRPA1 agonists
"C=CCN=C=S [AITC, allyl isothiocyanate]",Average Ca++ Counts,"human TRPA1; AITC 50 μM alone, each Set 1-4",8322.5 Counts and 14138.2 Counts and 15213.0 Counts and 11209.0 Counts
same,"Ca2+ Count, TRPA1",human TRPA1; control agonist AITC 50 μM,12219 Count
CC(=O)c1ccc[nH]1 [Acetylpyrrole],% Thiol Reduction,[3]; 1 ppm 1-propanethiol,37.3%
COc1cc(CNC(=O)CCCC/C=C/C(C)C)ccc1O [Capsaicin],"Ca2+ Count, TRPV1",human TRPV1 [4],16204 Count
O=C/C=C/c1ccccc1 [Cinnamic aldehyde],Percent Thiol Reduction vs. Control,[3]; [7],36.8%
same,Percent Thiol Reduction vs. Control,[3]; [8],52.4%
same,Percent Thiol Reduction vs. Control,[3]; [9],−10.0%
same,Percent Thiol Reduction vs. Control,[3]; [10],−5.7%
CCCCCC1=C(C)CCC1=O [Dihydrojasmone],Burning Sensation,[5]; [11],13.1
same,Numbing Sensation,[5]; [11],6.9
same,Burning Sensation,[5]; [12],8.9
same,Numbing Sensation,[5]; [12],6.3
same,Burning Sensation,[5]; [13],2.8
same,Numbing Sensation,[5]; [13],0.8
same,Burning Sensation,[5]; [14],0.8
same,Numbing Sensation,[5]; [14],0.0
same,Burning Sensation,[5]; [15],0.6
same,Numbing Sensation,[5]; [15],0.0
same,Burning Sensation,[5]; [16],16.9
same,Numbing Sensation,[5]; [16],6.9
same,Burning Sensation,"[5]; Initial in Mouth, hydrogen peroxide mouthwash (TABLE 11) with Apritone 200 ppm, Isobornyl Isobutyrate 100 ppm, Dihydrojasmone 6 ppm as named, 10 panelists",12.5
same,Burning Sensation Rating,"[6]; 5 Min After Rinse, dentifrice Sample E (1% menthol) with antagonist levels as E42",11.3
same,Burning Sensation Rating,"[6]; 10 Min After Rinse, dentifrice Sample E (1% menthol) with antagonist levels as E42",2.5
same,Burning Sensation Rating,"[6]; 20 Min After Rinse, dentifrice Sample E (1% menthol) with antagonist levels as E42",0.0
same,Burning Sensation Rating,"[6]; 30 Min After Rinse, dentifrice Sample E (1% menthol) with antagonist levels as E42",0.0
same,Burning Sensation Rating,"[6]; After Expectoration, dentifrice Sample E (1% added menthol) with Apritone 200 ppm, Dihydrojasmone 6 ppm, Isobornyl Isobutyrate 100 ppm, α-heptyl-γ-valerolactone 100 ppm as named",24.1
same,Burning Sensation Rating,"[6]; After Rinse, dentifrice Sample E (1% menthol) with antagonist levels as E42",21.3
same,% inhibition of TRPV1 activation by 500 uM H2O2,human TRPV1 [1]; Dose 4000,98%
same,% Reduction of Hydrogen Peroxide TRPV1 Activation,human TRPV1 [1]; [17],98%
same,Ca++ counts,"human TRPV1 [1]; Dose 4000, 500 uM H2O2",38
same,Percent Thiol Reduction vs. Control,[3]; [7],79.0%
same,Percent Thiol Reduction vs. Control,[3]; [8],92.1%
same,% Thiol Reduction,[3]; 1 ppm 1-propanethiol,significantly or completely reduced sulfur production
same,"thiol reduction, comparison in words","[3]; 1 ppm 1-propanethiol, compound 0.01% and 0.05%",better reduction in thiol than delta damascone
same,Percent Thiol Reduction vs. Control,[3]; [9],41.3%
same,Percent Thiol Reduction vs. Control,[3]; [10],66.7%
same,"thiol reduction, comparison in words","[3]; 10 ppm 1-propanethiol, compound 0.05%",close to delta damascone's thiol reduction
same,% inhibition of TRPV1 activation by 350 nM Capsaicin,human TRPV1 [2]; Dose 4000,4%
same,Ca++ counts,"human TRPV1 [2]; Dose 4000, 350 nM Capsaicin",11397
CCc1occc(=O)c1O [Ethyl maltol],% Thiol Reduction,[3]; 1 ppm 1-propanethiol,−17.2%
CC1=CC(=O)CC(C)(C)C1 [Isophorone],% Thiol Reduction,[3]; 1 ppm 1-propanethiol,43.1%
CCC(=O)OCCOc1ccccc1 [Phenoxyethyl Propionate],"reduction of hydrogen peroxide activation of TRPV1, in words",human TRPV1 [1],reduce hydrogen peroxide activation of TRPV1
same,inhibition at 400 µM,human TRPV1 [1]; [17],60%
same,Ca++ counts,"human TRPV1 [1]; Dose 4000, 500 uM H2O2",737
same,Ca++ counts,"human TRPV1 [2]; Dose 4000, 350 nM Capsaicin",10922
same,"effect on TRPA1 receptor, in words (agonist / enhancer)",human TRPA1,TRPA1 agonists
CC(C)C(=O)OCc1ccc2c(c1)OCO2 [Piperonyl Isobutyrate],"reduction of hydrogen peroxide activation of TRPV1, in words",human TRPV1 [1],reduces hydrogen peroxide activation of TRPV1
same,inhibition at 400 µM,human TRPV1 [1]; [17],63%
same,Ca++ counts,"human TRPV1 [1]; Dose 4000, 500 uM H2O2",682
same,Ca++ counts,"human TRPV1 [2]; Dose 4000, 350 nM Capsaicin",10804
same,"effect on TRPA1 receptor, in words (agonist / enhancer)",human TRPA1,enhancer of TRPA1
CC/C=C\CC1=C(C)CCC1=O [cis-Jasmone],Percent Thiol Reduction vs. Control,[3]; [7],36.1%
same,Percent Thiol Reduction vs. Control,[3]; [8],55.3%
same,Percent Thiol Reduction vs. Control,[3]; [9],25.4%
same,Percent Thiol Reduction vs. Control,[3]; [10],8.2%
C/C=C/C(=O)C1C(C)C=CCC1(C)C (centres unmarked) [delta damascone],"thiol reduction, comparison in words","[3]; 10 ppm 1-propanethiol, compound 0.01%",higher activity at its lower concentration (0.01%) than any of the other michael acceptor's
C/C=C/C(=O)C1C(C)C=CCC1(C)C (centres unmarked) [delta-Damascone],Percent Thiol Reduction vs. Control,[3]; [7],77.7%
same,Percent Thiol Reduction vs. Control,[3]; [8],82.3%
same,Percent Thiol Reduction vs. Control,[3]; [9],81.0%
same,Percent Thiol Reduction vs. Control,[3]; [10],81.2%
